# In ChEMBL document CHEMBL1201862, “PubChem BioAssay data set” (2004):
# Activity calls are given as the source filed them.
# Experiments:
# [1] = decrease of insulin promoter-GFP reporter – imaging, high-content screening, mouse beta cells (AID 1628); assay type: functional; settings: MIN6
# [2] = MIN6 cell viability loss – mouse insulinoma, cytotoxicity control, dose response (AID 2122); assay type: functional;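 note: confirmatory high-throughput counterscreen run to flag cytotoxic compounds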
# [3] = microbe, parasite or virus in culture; assay type: functional; settings: Mycobacterium tuberculosis
# [4] = viability of PTEN-deleted HCT116 cells – cell-based, HCT116 PTEN knockout, dose response (AID 1047); assay type: functional;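 note: HCT116 colon tumor cells with PTEN knocked out; cells exposed to compound for 60 hours before readout; potency for loss of cell viability measured by luminescence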
# [5] = viability of HCT116 lacking mutant beta-catenin – cell-based, human colon tumor, dose response (AID 1045); assay type: functional;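 note: HCT116 colon tumor cells with beta catenin knocked out; cells exposed to compound for 60 hours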
# [6] = biological target: T1, Microphthalmia-associated transcription factor (Homo sapiens, UniProt O75030); assay: reducers of TRPM1 reporter luminescence, concentration series – cell-based, SK-MEL-5, cherry-picked, set 3, MITF inhibitor project, dose response (AID 493073); assay type: functional;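 note: SK-MEL-5 melanoma cells with luciferase driven by the MITF target TRPM1 promoter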
# T1 sequence (O75030 whole entry): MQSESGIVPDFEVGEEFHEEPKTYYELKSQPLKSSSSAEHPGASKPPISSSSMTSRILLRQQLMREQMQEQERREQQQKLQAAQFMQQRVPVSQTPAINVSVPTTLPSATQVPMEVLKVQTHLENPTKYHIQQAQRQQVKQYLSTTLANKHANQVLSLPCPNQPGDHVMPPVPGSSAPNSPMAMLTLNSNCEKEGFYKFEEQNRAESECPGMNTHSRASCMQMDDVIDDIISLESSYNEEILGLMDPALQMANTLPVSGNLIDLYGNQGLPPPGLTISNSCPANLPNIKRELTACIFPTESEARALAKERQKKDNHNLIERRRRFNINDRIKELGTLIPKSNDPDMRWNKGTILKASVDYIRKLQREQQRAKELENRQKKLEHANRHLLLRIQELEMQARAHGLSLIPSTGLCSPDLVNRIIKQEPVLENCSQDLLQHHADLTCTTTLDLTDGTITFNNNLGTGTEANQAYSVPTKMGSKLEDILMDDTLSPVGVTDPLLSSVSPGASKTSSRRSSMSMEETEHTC
# A-375 = assay: MITF: Counter assay: A375 proliferation Measured in Cell-Based System Using Plate Reader - 2084-03_Inhibitor_Dose_DryPowder_Activity. [Related pubchem assays (depositor defined):AID488944]; assay type: functional; settings: Homo sapiens
# [7] = reduced cellular PGC1a acetyl-lysine signal – cell-based, cherry-picked samples, dose response (AID 720514); assay type: functional;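 note: potency may reflect raised or lowered acetylation signal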
# [8] = viability loss in Vero cells – cytotoxicity control for Vif-APOBEC3G degradation inhibitor project, dose response (AID 1117358); assay type: functional; settings: Vero
# HEK293 = assay: cells; assay type: functional, cell-based; settings: Homo sapiens
# [9] = biological target: T2, Nuclear receptor subfamily 0 group B member 1 (Homo sapiens, UniProt P51843); assay: Luminescence-based cell-based high throughput dose response assay for inhibitors of the orphan nuclear receptor subfamily 0, group B, member 1 (DAX1; NR0B1). [Related pubchem assays (depositor defined):AID504766, AID504790]; assay type: functional
# T2 sequence (P51843 whole entry): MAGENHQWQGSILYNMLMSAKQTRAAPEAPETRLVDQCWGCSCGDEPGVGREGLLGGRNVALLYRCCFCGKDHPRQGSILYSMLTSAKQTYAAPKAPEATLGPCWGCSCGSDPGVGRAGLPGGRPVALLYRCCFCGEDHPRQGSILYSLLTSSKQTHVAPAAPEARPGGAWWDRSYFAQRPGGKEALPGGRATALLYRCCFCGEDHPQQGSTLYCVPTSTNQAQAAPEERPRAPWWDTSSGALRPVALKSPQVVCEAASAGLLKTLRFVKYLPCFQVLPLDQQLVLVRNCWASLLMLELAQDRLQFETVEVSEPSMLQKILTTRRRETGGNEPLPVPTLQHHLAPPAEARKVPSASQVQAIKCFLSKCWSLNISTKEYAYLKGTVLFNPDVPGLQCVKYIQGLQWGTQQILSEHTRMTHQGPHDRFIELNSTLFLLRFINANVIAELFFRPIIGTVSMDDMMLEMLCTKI
# [10] = biological target: Delta-type opioid receptor (Homo sapiens, UniProt P41143); assay: Counterscreen for agonists of heterodimerization of the mu 1 (OPRM1) and delta 1 (OPRD1) opioid receptors: Luminescence-based cell-based high throughput dose response assay to identify agonists of OPRD1 homodimerization. [Related pubchem assays (depositor defined):AID504326, AID504355, AID504692, AID504904, AID504905]; assay type: functional
# Mu-type opioid receptor = Mu-type opioid receptor (Homo sapiens, UniProt P35372); assay: Counterscreen for agonists of heterodimerization of the mu 1 (OPRM1) and delta 1 (OPRD1) opioid receptors: Luminescence-based cell-based high throughput dose response assay to identify agonists of OPRM1 homodimerization.; assay type: functional;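 note: U2OS cells expressing OPRM1 and beta-arrestin as split beta-galactosidase partners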
# [11] = biological target: 5-hydroxytryptamine receptor 5A (Homo sapiens, UniProt P47898); assay: Counterscreen for agonists of OPRM1-OPRD1 heterodimerization: luminescence-based cell-based high throughput dose response assay to identify agonists of 5-hydroxytryptamine (serotonin) 5A receptor (HTR5A). [Related pubchem assays (depositor defined):AID504326, AID504355, AID504692, AID504904, AID504905]; assay type: functional
# [12] = biological target: FAD-linked sulfhydryl oxidase ALR (Homo sapiens, UniProt P55789); assay: ALR-catalysed DTT oxidation blockers – biochemical, H2O2 detection, luminescence, cherry-pick, dose response (AID 493248)
# [13] = NIH-3T3 fibroblast cytotoxicity, dose response, cytotoxicity control, cell-based, fluorescence, Alamar Blue, secondary assay (AID 2327); assay type: functional;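 note: NIH-3T3 mouse fibroblasts cultured with fluconazole at 8 µg/mL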
# [14] = tested on: Streptococcus sp. 'group A'; assay: Streptococcus pyogenes SK(-)GAS viability under kanamycin – luminescence, BacTiterGlo, confirmation, counter-screen for streptokinase expression inhibitor project, dose response (AID 1900); assay type: functional, organism-based
# Streptokinase A = biological target: T3, Streptokinase A (Streptococcus pyogenes serotype M1, UniProt P10520); assay: viability-normalized secreted streptokinase activity reduction – plasminogen activation absorbance, OD405, dose response (AID 1914); assay type: functional, Streptococcus pyogenes M1 GAS;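 note: secreted streptokinase activity via plasminogen activation per viability signal from cell pellet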
# T3 sequence (P10520 whole entry): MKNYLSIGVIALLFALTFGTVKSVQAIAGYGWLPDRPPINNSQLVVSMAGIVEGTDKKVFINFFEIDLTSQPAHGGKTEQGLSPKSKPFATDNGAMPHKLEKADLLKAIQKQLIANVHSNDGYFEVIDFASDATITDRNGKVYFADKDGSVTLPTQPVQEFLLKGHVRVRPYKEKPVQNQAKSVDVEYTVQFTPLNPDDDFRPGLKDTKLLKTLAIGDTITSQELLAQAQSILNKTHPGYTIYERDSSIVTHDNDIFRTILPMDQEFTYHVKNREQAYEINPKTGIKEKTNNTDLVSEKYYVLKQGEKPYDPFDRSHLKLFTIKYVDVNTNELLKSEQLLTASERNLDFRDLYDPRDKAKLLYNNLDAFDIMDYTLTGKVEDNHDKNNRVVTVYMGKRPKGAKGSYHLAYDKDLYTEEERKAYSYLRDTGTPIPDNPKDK
# [15] = fluconazole-exposed Candida albicans growth modulators – fluorescence, retest, confirmation (AID 2467); assay type: functional, cell-based
# [16] = biological target: T4, Serine/threonine-protein phosphatase (Candida dubliniensis (strain CD36 / CBS 7987 / NCPF 3949 / NRRLY-17841) (Yeast), UniProt B9W6M3); assay: blockers of CaCl2-induced CDRE-lacZ signaling – S. cerevisiae, luminescence, secondary, dose response (AID 2388); assay type: functional, cell-based;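 note: yeast reporter cells carrying a calcineurin-responsive lacZ construct stimulated with calcium chloride; luminescent beta-galactosidase reporter signal in whole cells rather than isolated phosphatase activity; potency for inhibition where a drop in reporter signal means calcineurin blockade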
# T4 sequence (B9W6M3 whole entry): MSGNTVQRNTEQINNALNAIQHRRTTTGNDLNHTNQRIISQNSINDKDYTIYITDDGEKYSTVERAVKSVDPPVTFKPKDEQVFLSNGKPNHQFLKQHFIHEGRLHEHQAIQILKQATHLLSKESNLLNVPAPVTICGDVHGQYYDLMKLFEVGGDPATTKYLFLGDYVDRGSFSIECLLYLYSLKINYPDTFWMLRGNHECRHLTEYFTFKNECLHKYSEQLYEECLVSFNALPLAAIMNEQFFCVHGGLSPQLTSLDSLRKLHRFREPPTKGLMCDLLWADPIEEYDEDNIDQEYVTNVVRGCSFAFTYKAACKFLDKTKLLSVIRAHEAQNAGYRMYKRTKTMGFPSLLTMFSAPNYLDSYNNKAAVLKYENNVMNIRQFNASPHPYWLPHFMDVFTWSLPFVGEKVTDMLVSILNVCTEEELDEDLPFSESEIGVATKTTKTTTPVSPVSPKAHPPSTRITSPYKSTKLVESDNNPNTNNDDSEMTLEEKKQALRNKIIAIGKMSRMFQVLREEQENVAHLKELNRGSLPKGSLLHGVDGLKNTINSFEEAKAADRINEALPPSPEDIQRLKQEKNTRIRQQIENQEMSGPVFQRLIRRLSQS
# Streptococcus = assay: GAS UMAA2166 growth inhibition – luminescence, BacTiterGlo, counter-screen for streptokinase expression inhibitor project, dose response (AID 1915); assay type: functional, organism-based;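 note: potency for reduction of bacterial viability or growth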
# [17] = THP-1 cell cytotoxicity, dose response, cytotoxicity control for non-replicating M. tuberculosis project (AID 489025); assay type: functional
# [18] = Vero E6 cell cytotoxicity, dose response, cytotoxicity control for non-replicating M. tuberculosis project, secondary assay (AID 492998); assay type: functional, VeroE6; settings: Vero C1008
# cells = assay type: functional
# [19] = biological target: ATP-dependent molecular chaperone HSP82 (Candida albicans (strain WO-1) (Yeast), UniProt C4YTQ8); assay: steroid-induced GRE reporter decrease in yeast – S. cerevisiae, luminescence, Hsp90 inhibitor project, dose response (AID 2400); assay type: functional, cell-based;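 note: beta-galactosidase luminescence from glucocorticoid response element reporter as proxy for Hsp90 function; inhibitor potency where signal loss means Hsp90 inhibition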
# [20] = biological target: T5, Corticotropin-releasing factor receptor 2/Corticotropin-releasing factor-binding protein (Homo sapiens, UniProt P24387+Q13324); assay: Dose Response confirmation of uHTS hits for small molecule antagonists of the CRF-binding protein and CRF-R2 receptor complex.; assay type: functional; settings: read-out: IC50_Mean
# T5 sequence (Q13324 whole entry): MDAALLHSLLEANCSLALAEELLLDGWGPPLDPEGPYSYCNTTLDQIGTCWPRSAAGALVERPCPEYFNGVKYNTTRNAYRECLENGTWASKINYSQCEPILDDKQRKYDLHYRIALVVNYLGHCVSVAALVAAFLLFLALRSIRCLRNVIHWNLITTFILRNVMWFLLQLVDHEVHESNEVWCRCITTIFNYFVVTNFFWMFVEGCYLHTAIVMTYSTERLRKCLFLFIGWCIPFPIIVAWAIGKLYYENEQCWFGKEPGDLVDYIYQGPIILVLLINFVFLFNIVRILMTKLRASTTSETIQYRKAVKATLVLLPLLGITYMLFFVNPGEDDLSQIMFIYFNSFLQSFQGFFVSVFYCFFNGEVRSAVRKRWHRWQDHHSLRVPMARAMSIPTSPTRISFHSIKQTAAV
# T5 sequence (P24387 whole entry): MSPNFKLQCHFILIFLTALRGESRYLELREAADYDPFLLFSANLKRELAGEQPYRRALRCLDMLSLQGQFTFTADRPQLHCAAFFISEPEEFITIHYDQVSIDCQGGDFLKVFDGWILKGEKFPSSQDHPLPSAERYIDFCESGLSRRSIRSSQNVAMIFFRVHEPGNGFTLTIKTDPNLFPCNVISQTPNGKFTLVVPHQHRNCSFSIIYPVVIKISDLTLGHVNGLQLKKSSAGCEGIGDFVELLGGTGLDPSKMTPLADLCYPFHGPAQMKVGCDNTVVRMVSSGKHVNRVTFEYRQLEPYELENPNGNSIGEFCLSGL
# [21] = biological target: T5, Corticotropin-releasing factor receptor 2/Corticotropin-releasing factor-binding protein; assay: activators of CRF receptor 2 with binding protein – uHTS hits, confirmation (AID 602473); assay type: functional; settings: read-out: EC50_Mean
# Genome polyprotein = Genome polyprotein (dengue virus type 2, UniProt P29990); assay: flavivirus cap methylation enzyme inhibition – biochemical, confirmation dose response, primary screen (AID 588689); assay type: functional
# Sequence of Genome polyprotein (P29990 2492-3391 limits assumed): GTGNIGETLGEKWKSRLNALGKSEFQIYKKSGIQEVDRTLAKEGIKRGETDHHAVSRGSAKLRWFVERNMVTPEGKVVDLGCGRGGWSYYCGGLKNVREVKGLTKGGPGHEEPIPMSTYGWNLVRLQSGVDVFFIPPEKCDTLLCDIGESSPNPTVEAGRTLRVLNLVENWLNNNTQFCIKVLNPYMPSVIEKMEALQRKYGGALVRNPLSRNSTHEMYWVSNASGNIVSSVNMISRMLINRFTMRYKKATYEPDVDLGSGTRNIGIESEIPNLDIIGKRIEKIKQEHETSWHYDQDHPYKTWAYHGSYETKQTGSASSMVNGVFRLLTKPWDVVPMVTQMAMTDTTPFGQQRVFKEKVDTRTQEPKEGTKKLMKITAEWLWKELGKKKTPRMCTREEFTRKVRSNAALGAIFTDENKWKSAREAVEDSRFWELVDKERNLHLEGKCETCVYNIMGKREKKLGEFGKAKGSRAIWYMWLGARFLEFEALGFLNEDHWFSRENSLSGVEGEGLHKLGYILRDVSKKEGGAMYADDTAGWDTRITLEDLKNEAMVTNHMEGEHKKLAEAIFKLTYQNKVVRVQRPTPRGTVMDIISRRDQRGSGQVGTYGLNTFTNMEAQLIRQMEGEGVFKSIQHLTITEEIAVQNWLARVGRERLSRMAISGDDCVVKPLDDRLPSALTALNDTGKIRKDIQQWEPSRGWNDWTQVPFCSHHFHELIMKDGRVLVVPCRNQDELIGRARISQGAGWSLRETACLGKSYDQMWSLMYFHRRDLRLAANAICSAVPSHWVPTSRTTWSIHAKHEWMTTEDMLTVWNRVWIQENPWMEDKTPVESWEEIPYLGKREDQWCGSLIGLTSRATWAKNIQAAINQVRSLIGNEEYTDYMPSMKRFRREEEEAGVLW
# Sequence of ATP-dependent molecular chaperone HSP82 (C4YTQ8 whole entry): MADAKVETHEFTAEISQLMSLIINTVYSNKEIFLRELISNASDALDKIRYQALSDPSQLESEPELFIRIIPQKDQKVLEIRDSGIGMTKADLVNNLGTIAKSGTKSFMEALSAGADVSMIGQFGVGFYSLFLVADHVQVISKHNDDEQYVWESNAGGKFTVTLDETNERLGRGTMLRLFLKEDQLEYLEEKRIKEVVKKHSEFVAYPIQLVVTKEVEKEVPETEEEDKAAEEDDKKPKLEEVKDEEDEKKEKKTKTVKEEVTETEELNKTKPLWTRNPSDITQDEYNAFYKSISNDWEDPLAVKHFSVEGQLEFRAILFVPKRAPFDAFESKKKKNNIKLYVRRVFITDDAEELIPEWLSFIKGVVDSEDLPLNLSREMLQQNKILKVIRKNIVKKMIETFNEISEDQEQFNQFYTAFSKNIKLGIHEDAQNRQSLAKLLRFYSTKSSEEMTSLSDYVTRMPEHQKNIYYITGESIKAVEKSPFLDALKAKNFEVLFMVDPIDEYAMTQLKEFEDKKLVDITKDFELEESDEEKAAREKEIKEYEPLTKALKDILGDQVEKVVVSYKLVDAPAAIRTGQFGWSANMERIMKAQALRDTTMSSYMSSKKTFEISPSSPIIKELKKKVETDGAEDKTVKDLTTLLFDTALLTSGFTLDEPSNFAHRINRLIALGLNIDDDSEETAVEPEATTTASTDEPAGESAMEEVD
# Sequence of 5-hydroxytryptamine receptor 5A (P47898 whole entry): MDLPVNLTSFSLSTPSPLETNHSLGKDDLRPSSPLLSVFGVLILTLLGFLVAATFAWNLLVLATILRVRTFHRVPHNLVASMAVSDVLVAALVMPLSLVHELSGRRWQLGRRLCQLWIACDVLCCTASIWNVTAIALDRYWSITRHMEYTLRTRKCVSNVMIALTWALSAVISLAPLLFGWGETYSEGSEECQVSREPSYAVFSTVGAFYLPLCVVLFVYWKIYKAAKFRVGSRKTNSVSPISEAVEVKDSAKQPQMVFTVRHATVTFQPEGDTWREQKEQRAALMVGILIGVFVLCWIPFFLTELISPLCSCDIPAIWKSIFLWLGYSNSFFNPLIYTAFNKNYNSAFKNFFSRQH
# Sequence of Mu-type opioid receptor (P35372 whole entry): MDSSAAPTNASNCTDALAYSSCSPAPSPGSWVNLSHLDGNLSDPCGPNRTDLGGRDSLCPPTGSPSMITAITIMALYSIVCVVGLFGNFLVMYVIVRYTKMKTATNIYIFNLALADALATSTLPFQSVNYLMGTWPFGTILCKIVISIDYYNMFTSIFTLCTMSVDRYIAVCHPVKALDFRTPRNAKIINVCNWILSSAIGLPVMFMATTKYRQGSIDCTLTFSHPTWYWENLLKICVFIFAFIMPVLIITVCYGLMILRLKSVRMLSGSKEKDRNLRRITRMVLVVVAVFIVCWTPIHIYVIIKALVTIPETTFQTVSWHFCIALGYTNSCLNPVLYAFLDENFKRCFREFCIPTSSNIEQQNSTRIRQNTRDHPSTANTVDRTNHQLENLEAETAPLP
# Sequence of Delta-type opioid receptor (P41143 whole entry): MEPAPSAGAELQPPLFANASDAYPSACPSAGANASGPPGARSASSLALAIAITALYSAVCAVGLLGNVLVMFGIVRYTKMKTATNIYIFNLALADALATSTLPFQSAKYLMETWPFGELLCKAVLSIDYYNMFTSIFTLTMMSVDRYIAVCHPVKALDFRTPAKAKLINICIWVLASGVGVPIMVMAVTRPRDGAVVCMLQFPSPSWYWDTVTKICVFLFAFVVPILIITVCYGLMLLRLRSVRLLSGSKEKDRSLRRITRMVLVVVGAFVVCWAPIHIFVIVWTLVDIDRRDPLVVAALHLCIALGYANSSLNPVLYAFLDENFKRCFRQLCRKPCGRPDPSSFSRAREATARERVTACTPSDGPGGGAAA
# Sequence of FAD-linked sulfhydryl oxidase ALR (P55789 whole entry): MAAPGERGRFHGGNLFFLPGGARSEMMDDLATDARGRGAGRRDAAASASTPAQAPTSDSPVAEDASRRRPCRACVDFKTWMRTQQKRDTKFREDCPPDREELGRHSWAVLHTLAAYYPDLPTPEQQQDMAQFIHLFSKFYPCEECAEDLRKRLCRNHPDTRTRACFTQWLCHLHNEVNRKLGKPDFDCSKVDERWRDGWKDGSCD
compound,measurement,setting,value
COc1ccc(-c2cc(-c3ccccc3)c(C#N)c([S+](C)[O-])n2)cc1 (stereo unspecified),IC50,[1],2.05 µM (active)
same,IC50,[2],2.76 µM (active)
same,CC50,[3],23 µM (active)
same,EC50,[4],3.33 µM (active)
same,EC50,[5],2.12 µM (active)
same,AC50,[6],11.8 µM (active)
same,AC50,A-375,20.2 µM (active)
same,AC50,[7],4.89 µM (active)
same,CC50,[8],31.4 µM (active)
C/C(CC(=O)Nc1ccc(Cl)cc1C(F)(F)F)=N\NC(=O)c1cccs1,IC50,HEK293,> 67.6 µM (inactive)
same,IC50,[9],> 67.6 µM (inactive)
OCC1(CCc2ccccc2)CCN(Cc2cc(F)ccc2-n2cccn2)CC1,EC50,[10],> 92.5 µM (inactive)
same,EC50,Mu-type opioid receptor,> 92.5 µM (inactive)
same,EC50,[11],> 92.5 µM (inactive)
COc1ccc(Nc2[nH]nc(N)c2C(N)=O)cc1,AC50,[12],2.71 µM (active)
same,IC50,HEK293,> 67.5 µM (inactive)
same,IC50,[9],> 67.5 µM (inactive)
CCCn1nnnc1NC(=O)c1ccc2ccccc2c1,EC50,[13],121 µM (active)
same,EC50,[14],1.59 µM (active)
same,EC50,Streptokinase A,> 150 µM (not active)
same,EC50,[15],0.505 µM (active)
same,EC50,[16],> 180 µM (inactive)
same,EC50,Streptococcus,> 150 µM (not active)
same,CC50,[17],39.5 µM (active)
same,CC50,[18],> 20 µM (active)
same,IC50,cells,0.9 µM (active)
same,EC50,[19],82.2 µM (active)
Cc1nc(-c2ccncc2)nc(NCCNc2ccc(C(F)(F)F)cn2)c1Cl,IC50,HEK293,> 67.5 µM (inactive)
same,IC50,[9],> 67.5 µM (inactive)
same,IC50,[20],> 47.1 µM (inactive)
same,EC50,[21],> 53 µM (inactive)
COc1ccccc1/C=C1\SC(=S)N(NS(=O)(=O)c2ccccc2)C1=O,EC50,[13],> 150 µM (inconclusive)
same,EC50,[15],0.94 µM (active)
same,EC50,[16],> 180 µM (inactive)
same,IC50,Genome polyprotein,36.2 µM (active)
same,EC50,[19],18.2 µM (active)
